Laboratory results taken from PubChem BioAssay AID2060902 (Molecular Pharmacology Branch, DTP, NCI, 2025).
pIC50: −log10 of the molar value.

Tested on: 485368-065-R3-J5-PDC spheroids with HUVEC/MSC, viability
Test: Anticancer human tumor 485368-065-R3-J5-PDC patient-derived pancreatic carcinoma cell line growth inhibition [RAS]
Conditions: for pIC50: curve of first compound; for viability, T/C: stronger effect = lower value
Method in brief: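 Multi-cell-type spheroids: tumor cells plus HUVEC endothelial cells and mesenchymal stem cells. RAS-pathway inhibitors were combined with targeted agents, each dosed in half-log steps down from clinical Cmax, or from 10 microM when Cmax was unknown.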

[1] = second compound 0.000949 µM, first compound 0.00316 µM
[2] = second compound 0.000949 µM, first compound 0.01 µM
[3] = second compound 0.000949 µM, first compound 0.0316 µM
[4] = second compound 0.000949 µM, first compound 0.1 µM
[5] = second compound 0.000949 µM, first compound 0.316 µM
[6] = second compound 0.000949 µM, first compound 1 µM
[7] = second compound 0.003 µM, first compound 0.00316 µM
[8] = second compound 0.003 µM, first compound 0.01 µM
[9] = second compound 0.003 µM, first compound 0.0316 µM
[10] = second compound 0.003 µM, first compound 0.1 µM
[11] = second compound 0.003 µM, first compound 0.316 µM
[12] = second compound 0.003 µM, first compound 1 µM
[13] = second compound 0.00949 µM, first compound 0.00316 µM
[14] = second compound 0.00949 µM, first compound 0.01 µM
[15] = second compound 0.00949 µM, first compound 0.0316 µM
[16] = second compound 0.00949 µM, first compound 0.1 µM
[17] = second compound 0.00949 µM, first compound 0.316 µM
[18] = second compound 0.00949 µM, first compound 1 µM
[19] = second compound 0.03 µM, first compound 0.00316 µM
[20] = second compound 0.03 µM, first compound 0.01 µM
[21] = second compound 0.03 µM, first compound 0.0316 µM
[22] = second compound 0.03 µM, first compound 0.1 µM
[23] = second compound 0.03 µM, first compound 0.316 µM
[24] = second compound 0.03 µM, first compound 1 µM
[25] = second compound 0.0949 µM, first compound 0.00316 µM
[26] = second compound 0.0949 µM, first compound 0.01 µM
[27] = second compound 0.0949 µM, first compound 0.0316 µM
[28] = second compound 0.0949 µM, first compound 0.1 µM
[29] = second compound 0.0949 µM, first compound 0.316 µM
[30] = second compound 0.0949 µM, first compound 1 µM
[31] = second compound 0.3 µM, first compound 0.00316 µM
[32] = second compound 0.3 µM, first compound 0.01 µM
[33] = second compound 0.3 µM, first compound 0.0316 µM
[34] = second compound 0.3 µM, first compound 0.1 µM
[35] = second compound 0.3 µM, first compound 0.316 µM
[36] = second compound 0.3 µM, first compound 1 µM
[37] = second compound 0.000949 µM, first compound 0.000949 µM
[38] = second compound 0.000949 µM, first compound 0.003 µM
[39] = second compound 0.000949 µM, first compound 0.00949 µM
[40] = second compound 0.000949 µM, first compound 0.03 µM
[41] = second compound 0.000949 µM, first compound 0.0949 µM
[42] = second compound 0.000949 µM, first compound 0.3 µM
[43] = second compound 0.003 µM, first compound 0.000949 µM
[44] = second compound 0.003 µM, first compound 0.003 µM
[45] = second compound 0.003 µM, first compound 0.00949 µM
[46] = second compound 0.003 µM, first compound 0.03 µM
[47] = second compound 0.003 µM, first compound 0.0949 µM
[48] = second compound 0.003 µM, first compound 0.3 µM
[49] = second compound 0.00949 µM, first compound 0.000949 µM
[50] = second compound 0.00949 µM, first compound 0.003 µM
[51] = second compound 0.00949 µM, first compound 0.00949 µM
[52] = second compound 0.00949 µM, first compound 0.03 µM
[53] = second compound 0.00949 µM, first compound 0.0949 µM
[54] = second compound 0.00949 µM, first compound 0.3 µM
[55] = second compound 0.03 µM, first compound 0.000949 µM
[56] = second compound 0.03 µM, first compound 0.003 µM
[57] = second compound 0.03 µM, first compound 0.00949 µM
[58] = second compound 0.03 µM, first compound 0.03 µM
[59] = second compound 0.03 µM, first compound 0.0949 µM
[60] = second compound 0.03 µM, first compound 0.3 µM
[61] = second compound 0.0949 µM, first compound 0.000949 µM
[62] = second compound 0.0949 µM, first compound 0.003 µM
[63] = second compound 0.0949 µM, first compound 0.00949 µM
[64] = second compound 0.0949 µM, first compound 0.03 µM
[65] = second compound 0.0949 µM, first compound 0.0949 µM
[66] = second compound 0.0949 µM, first compound 0.3 µM
[67] = second compound 0.3 µM, first compound 0.000949 µM
[68] = second compound 0.3 µM, first compound 0.003 µM
[69] = second compound 0.3 µM, first compound 0.00949 µM
[70] = second compound 0.3 µM, first compound 0.03 µM
[71] = second compound 0.3 µM, first compound 0.0949 µM
[72] = second compound 0.3 µM, first compound 0.3 µM
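Also: spheroids exposed to agents for seven days before readout.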

C=CC(=O)N1CCN(c2nc(OCC3CCCN3C)nc3c(F)c(-c4nc(N)cc(C)c4C(F)(F)F)c(Cl)cc23)C(C)C1 (stereo not drawn) + CCn1c(-c2cc(N3CCN(C)CC3)cnc2C(C)OC)c2c3cc(ccc31)-c1csc(n1)CC(NC(=O)C1CC1C)C(=O)N1CCCC(N1)C(=O)OCC(C)(C)C2
pIC50 (second compound 0.000949 µM): > 8.50
pIC50 (second compound 0.003 µM): > 8.50
pIC50 (second compound 0.00949 µM): > 8.50
pIC50 (second compound 0.03 µM): > 8.50
pIC50 (second compound 0.0949 µM): > 8.50
pIC50 (second compound 0.3 µM): > 8.50
viability, T/C [1]: 32.9%
viability, T/C [2]: 35.6%
viability, T/C [3]: 36.7%
viability, T/C [4]: 29.5%
viability, T/C [5]: 30.1%
viability, T/C [6]: 38.9%
viability, T/C [7]: 23.4%
viability, T/C [8]: 21.4%
viability, T/C [9]: 21.2%
viability, T/C [10]: 20.9%
viability, T/C [11]: 20.9%
viability, T/C [12]: 19.6%
viability, T/C [13]: 17.3%
viability, T/C [14]: 18.3%
viability, T/C [15]: 15.8%
viability, T/C [16]: 15.6%
viability, T/C [17]: 18%
viability, T/C [18]: 15.2%
viability, T/C [19]: 12.1%
viability, T/C [20]: 11.4%
viability, T/C [21]: 12.5%
viability, T/C [22]: 12.9%
viability, T/C [23]: 12.8%
viability, T/C [24]: 15.7%
viability, T/C [25]: 10%
viability, T/C [26]: 12.6%
viability, T/C [27]: 11.2%
viability, T/C [28]: 9.36%
viability, T/C [29]: 9.84%
viability, T/C [30]: 12.7%
viability, T/C [31]: 10.8%
viability, T/C [32]: 9.38%
viability, T/C [33]: 9%
viability, T/C [34]: 8.35%
viability, T/C [35]: 10.7%
viability, T/C [36]: 11%

CC1(C)CCC(Nc2ncc(C(F)(F)F)c(-c3c[nH]c4c(P(C)(C)=O)c(C#N)ccc34)n2)CN1 (stereo not drawn) + CCn1c(-c2cc(N3CCN(C)CC3)cnc2C(C)OC)c2c3cc(ccc31)-c1csc(n1)CC(NC(=O)C1CC1C)C(=O)N1CCCC(N1)C(=O)OCC(C)(C)C2
pIC50 (second compound 0.000949 µM): > 9.02
pIC50 (second compound 0.003 µM): > 9.02
pIC50 (second compound 0.00949 µM): > 9.02
pIC50 (second compound 0.03 µM): > 9.02
pIC50 (second compound 0.0949 µM): > 9.02
pIC50 (second compound 0.3 µM): > 9.02
viability, T/C [37]: 48.5%
viability, T/C [38]: 36.9%
viability, T/C [39]: 26.8%
viability, T/C [40]: 31%
viability, T/C [41]: 31.2%
viability, T/C [42]: 30.4%
viability, T/C [43]: 24.4%
viability, T/C [44]: 26.2%
viability, T/C [45]: 24.3%
viability, T/C [46]: 23.6%
viability, T/C [47]: 26.9%
viability, T/C [48]: 27.4%
viability, T/C [49]: 17.1%
viability, T/C [50]: 19%
viability, T/C [51]: 19.6%
viability, T/C [52]: 19.9%
viability, T/C [53]: 24.5%
viability, T/C [54]: 21.1%
viability, T/C [55]: 14%
viability, T/C [56]: 18.8%
viability, T/C [57]: 17.4%
viability, T/C [58]: 18.6%
viability, T/C [59]: 22.4%
viability, T/C [60]: 21.2%
viability, T/C [61]: 13.2%
viability, T/C [62]: 15.9%
viability, T/C [63]: 15.7%
viability, T/C [64]: 17%
viability, T/C [65]: 20.2%
viability, T/C [66]: 23.2%
viability, T/C [67]: 11.7%
viability, T/C [68]: 15.8%
viability, T/C [69]: 15.4%
viability, T/C [70]: 21.9%
viability, T/C [71]: 19.4%
viability, T/C [72]: 22.6%

CCc1c2c(nc3ccc(O)cc13)-c1cc3c(c(=O)n1C2)COC(=O)[C@]3(O)CC + CCn1c(-c2cc(N3CCN(C)CC3)cnc2C(C)OC)c2c3cc(ccc31)-c1csc(n1)CC(NC(=O)C1CC1C)C(=O)N1CCCC(N1)C(=O)OCC(C)(C)C2
pIC50 (second compound 0.000949 µM): > 9.02
pIC50 (second compound 0.003 µM): > 9.02
pIC50 (second compound 0.00949 µM): > 9.02
pIC50 (second compound 0.03 µM): > 9.02
pIC50 (second compound 0.0949 µM): > 9.02
pIC50 (second compound 0.3 µM): > 9.02
viability, T/C [37]: 29.2%
viability, T/C [38]: 19.3%
viability, T/C [39]: 12.3%
viability, T/C [40]: 6.49%
viability, T/C [41]: 3.81%
viability, T/C [42]: 3.85%
viability, T/C [43]: 17.6%
viability, T/C [44]: 13.6%
viability, T/C [45]: 9.1%
viability, T/C [46]: 7.85%
viability, T/C [47]: 5.44%
viability, T/C [48]: 3.67%
viability, T/C [49]: 15.4%
viability, T/C [50]: 11.8%
viability, T/C [51]: 8.19%
viability, T/C [52]: 7.82%
viability, T/C [53]: 5.53%
viability, T/C [54]: 6.59%
viability, T/C [55]: 9.82%
viability, T/C [56]: 8.14%
viability, T/C [57]: 6.87%
viability, T/C [58]: 8.66%
viability, T/C [59]: 5.8%
viability, T/C [60]: 7.18%
viability, T/C [61]: 8.87%
viability, T/C [62]: 8.54%
viability, T/C [63]: 6.42%
viability, T/C [64]: 6.3%
viability, T/C [65]: 6.27%
viability, T/C [66]: 5.48%
viability, T/C [67]: 7.33%
viability, T/C [68]: 9.17%
viability, T/C [69]: 6.28%
viability, T/C [70]: 5.07%
viability, T/C [71]: 5.93%
viability, T/C [72]: 5.26%

C=CC(=O)Nc1cc(Nc2nccc(-c3cn(C)c4ccccc34)n2)c(OC)cc1N(C)CCN(C)C + CCn1c(-c2cccnc2C(C)OC)c2c3cc(ccc31)N1CCOC(CC(NC(=O)C(C(C)C)N(C)C(=O)C3(F)CCN(C(=O)C#CC(C)(C)N(C)C)CC3)C(=O)N3CCCC(N3)C(=O)OCC(C)(C)C2)C1
pIC50 (second compound 0.000949 µM): < 6.00
pIC50 (second compound 0.003 µM): < 6.00
pIC50 (second compound 0.00949 µM): < 6.00
pIC50 (second compound 0.03 µM): < 6.00
pIC50 (second compound 0.0949 µM): < 6.00
pIC50 (second compound 0.3 µM): < 6.00
viability, T/C [1]: 104%
viability, T/C [2]: 94.9%
viability, T/C [3]: 99%
viability, T/C [4]: 91%
viability, T/C [5]: 101%
viability, T/C [6]: 105%
viability, T/C [7]: 87.5%
viability, T/C [8]: 95.3%
viability, T/C [9]: 102%
viability, T/C [10]: 93.7%
viability, T/C [11]: 113%
viability, T/C [12]: 115%
viability, T/C [13]: 88.7%
viability, T/C [14]: 95.7%
viability, T/C [15]: 98.4%
viability, T/C [16]: 102%
viability, T/C [17]: 117%
viability, T/C [18]: 103%
viability, T/C [19]: 89.4%
viability, T/C [20]: 114%
viability, T/C [21]: 92.5%
viability, T/C [22]: 98%
viability, T/C [23]: 105%
viability, T/C [24]: 110%
viability, T/C [25]: 104%
viability, T/C [26]: 105%
viability, T/C [27]: 105%
viability, T/C [28]: 107%
viability, T/C [29]: 110%
viability, T/C [30]: 97.6%
viability, T/C [31]: 101%
viability, T/C [32]: 99.7%
viability, T/C [33]: 106%
viability, T/C [34]: 112%
viability, T/C [35]: 106%
viability, T/C [36]: 101%
